“Also recorded” adds a separate entry of the source. Counter-ions that a name gives are not always drawn.
Experiments:
[1] = Heat age stability of HEUR-biocide formulation (appearance after heat aging); assay type: physicochemical; settings: biocide admixed with HEUR rheology modifier (RM-2020E or RM-8W); oven 50° C. for 2 weeks
Method: A number of biocides were admixed with ACRYSOL™ RM-2020E Rheology Modifier (RM-2020E, A Trademark of The Dow Chemical Company or Its Affiliates) and ACRYSOL™ RM-8W (RM-8W). In addition to testing biocides admixed with RM-2020E or RM-8W as-delivered, acid was also added to the rheology modifiers to lower the pH to approximately 4.5. Samples prepared with the biocide didecyldimethylammonium chloride were only tested when RM-2020E and RM-8W were prepared with 10-15% surfactant in the composition. The compositions were heat-aged in an oven maintained at 50° C. for 2 weeks. Heating aging was also carried out for RM-2020E in the absence of any biocide. If the composition failed the heat aging test, it was not tested for efficacy.
All heat aged samples were compared against a reference HEUR (RM-2020E or
The pass/fail criterion for biocide efficacy was determined by the formation of less than 1×10^4 colony forming units per mL (CFU/mL) of sample tested.

[2] = test system: pool of 6 different Gram negative and Gram positive bacterial strains; experiment: Bacterial challenge test (TAUNOVATE III High Throughput testing system, MPN); assay type: cell-based; settings: 30° C., repeated challenges
Method: Efficacy of all biocides were determined as described for 1-bromo-3-chloro-5,5-dimethylhydantion. The only difference was the concentration of the biocide, which is shown as a range in Table 1.
1-Bromo-3-chloro-5,5-dimethylhydantoin (0.5% aqueous solution) was prepared by dispersing Chlorox Pool and Spa (0.25 g in 49.75 g water). Unpreserved RM-2020E thickeners were dosed with biocide and challenge tested with bacteria using the TAUNOVATE℠ III High Throughput testing system. In general, the tested biocides were calibrated for density and prepared at levels 10× higher than the target concentrations using a robotic system. For example, to target 15 ppm and 40 ppm concentrations of 1-bromo-3-chloro-5,5-dimethylhydantoin respectively, 150 ppm and 400 ppm concentrations of 1-bromo-3-chloro-5,5-dimethylhydantoin were prepared by the automated system. […]
The inoculum was prepared by making a 1:1 pool of overnight cultures of 6 different Gram negative and Gram positive bacterial strains, and then diluted 1:20 with tryptic soy broth. […] Three additional challenges were performed 7 d apart with fresh bacterial cultures and growth recovery was assessed 1 and 7 d after inoculation. […]
(TSB) with indicator. […] The MPN was calculated to determine the relative growth scale rating, which is a measure of the passing or failure of the sample for growth. […]

Compound	Sample Appearance after Heat Age testing [1]	Challenge Test ([2]; 400 ppm biocide in HEUR prepared with 10-15% surfactant)	Challenge Test ([2]; 300 ppm biocide in HEUR)
CC1(C)C(=O)N(Cl)C(=O)N1Br [1-bromo-3-chloro-5,5-dimethylhydantoin]	non-degradative; also recorded: unchanged	–	–
CCCCCCCCCC[N+](C)(C)CCCCCCCCCC.[Cl-] [Didecyldimethylammonium chloride]	unchanged	Fail (The pass/fail criterion for biocide efficacy was determined by the formation of less than 1×10^4 colony forming units per mL (CFU/mL) of sample tested)	–
CCCCCCCCCCCCNC(=N)N [Dodecylguanidine Hydrochloride]	–	–	Fail (The pass/fail criterion for biocide efficacy was determined by the formation of less than 1×10^4 colony forming units per mL (CFU/mL) of sample tested)
C/C=C/C=C/C(=O)[O-].[K+] [Potassium sorbate]	Brown	–	–
[Na+].[O-]c1ccccc1-c1ccccc1 [Sodium o-phenylphenolate]	White	–	–
[Na+].[O-][n+]1ccccc1[S-] [Sodium pyrithione]	Bright yellow	–	–
Oc1ccccc1-c1ccccc1 [o-phenylphenol]	White	–	–
Zinc pyrithione	White sediment	–	–

Source: US20220354119A1, “COMPOSITION OF A RHEOLOGY MODIFIER AND DIHALOHYDANTOIN” (Rohm and Haas Company, priority 2019, published 2022)
